Experimental data as given in US20240051956A1, “SOS1 INHIBITORS AND USES THEREOF” (QILU REGOR THERAPEUTICS INC., priority 2020, published 2024).

Key:
NCI-H358 = assay: Cell proliferation assay, 3D, CellTiter-Glo 3D; format: cell-based, human; settings: Homo sapiens, 72 h; NCI-H358 (KRAS G12C), 3D ultra-low attachment, 3 days; read-out: anit-prolif. H358 IC50
Experimental: b. Cell Proliferation Assay
Low IC50 values are indicative of high potency of the compounds in this assay setting.
Cell proliferation assay is performed in three-dimensional (3D) ultra-low conditions with the human cell line NCI-H358, a human non-small cell lung cancer (NSCLC) cell line with a KRAS G12C mutation.
• 96-well Clear Round Bottom Ultra-Low Attachment Microplate (Corning, Cat. 7007) • 96-well Flat Clear Bottom White Polystyrene TC-treated Microplates (Corning, Cat. 3610) • RPMI-1640 Medium (Gibco, Cat. 22400105) • Fetal Bovine Serum (FBS) (Gibco, Cat. 10099141C) • 0.25% Trypsin-EDTA (Gibco, Cat. 25200056) • Penicillin-Streptomycin (Gibco, Cat. 15140122) • CellTiter-Glo 3D Cell Viability Assay (Promega, Cat. G9683)
NCI-H358 cells (ATCC, Cat. CRL-5807) are grown in cell culture flasks using RPMI medium supplemented with 10% FBS. Cells are incubated at 37° C. and 5% C02 in a humidified atmosphere, with sub-cultivation performed twice a week. Cells are trypsinized, counted and plated in 96-well ultra-low adhesion plates for 3D cell viability determination. The day after plating, serial dilutions of SOS1 inhibitor compounds are made using Tecan D300e Digital Dispenser to evaluate a concentration-dependent effect on cell viability. The concentration of the test compounds covers a range between 5 μM and 0.76 nM with serial 1:3 dilutions in 9 concentrations. 0.5 μL serial dilutions of the compounds are added in duplicates. 3 days later, the CellTiter-Glo 3D Cell Viability Assay is used to measure cell viability effects of SOS1 inhibitor compounds in 3D format. Luminescent intensity is determined using Envision (PerkinElmer). Data is analyzed and IC50 values are calculated using GraphPad Prism.

SOS1 and KRAS G12D = SOS1 and KRAS G12D (Homo sapiens (Human), UniProt Q07889); assay: KRAS::SOS1 AlphaScreen Binding Assay; settings: SOS1 (564-1049), KRAS G12D (1-169), GDP
Chain of SOS1 and KRAS G12D (Q07889 564-1049, stated change not applied): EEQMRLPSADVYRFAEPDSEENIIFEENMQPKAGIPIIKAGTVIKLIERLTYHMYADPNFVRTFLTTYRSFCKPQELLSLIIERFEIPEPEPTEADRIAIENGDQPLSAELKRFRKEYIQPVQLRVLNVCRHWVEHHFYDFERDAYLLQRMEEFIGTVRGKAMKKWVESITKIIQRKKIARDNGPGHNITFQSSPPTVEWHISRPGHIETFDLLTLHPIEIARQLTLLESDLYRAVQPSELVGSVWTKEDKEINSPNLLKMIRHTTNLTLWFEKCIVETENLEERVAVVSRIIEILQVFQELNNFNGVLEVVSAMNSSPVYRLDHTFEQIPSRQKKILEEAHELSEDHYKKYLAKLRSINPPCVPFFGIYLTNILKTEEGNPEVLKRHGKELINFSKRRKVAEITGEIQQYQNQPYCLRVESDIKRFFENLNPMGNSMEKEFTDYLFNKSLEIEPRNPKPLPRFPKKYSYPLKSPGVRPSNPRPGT
Text: a. KRAS::SOS1 AlphaScreen Binding Assay
Low IC50 values of given compounds are indicative of high potency of the SOS1 inhibitor compounds in this assay setting.
• GST-TEV-SOS1 (564-1049) and His-TEV-Avi-KRAS G12D (1-169) are purchased from Viva Biotech (Shanghai) Ltd. • GDP (Sigma, Cat. G7127) • AlphaLISA Glutathione Acceptor Beads (PerkinElmer, Cat. AL109C) • AlphaScreen Streptavidin Donor Beads (PerkinElmer, Cat. 6760002S) • Assay plates: ProxiPlate-384 Plus, White 384-shallow well Microplate (PerkinElmer, Cat. 6008280)
SOS1 inhibitor compounds are diluted to a final start concentration of […]. Serial dilutions of compounds are made using Tecan D300e Digital Dispenser in 9 concentrations with serial 1:3 dilutions. 100 nL of compound solution is transferred to the 384-well assay plate per well, covering a range between 1 μM and 0.15 nM minimum in duplicate. 10 nM (final assay concentration) KRAS G12D, 5 nM (final assay concentration) SOS1 and 10 μM (final assay concentration) GDP are mixed in assay buffer, and 5 μL of KRAS::SOS1 GDP mix is added into the assay plate to the 100 nL of compound solution (final dilution in the assay 1:100, final DMSO concentration 1%). After a 30 min incubation, AlphaLISA Glutathione Acceptor Beads and AlphaScreen Streptavidin Donor Beads are mixed in assay buffer at a concentration of 5 µg/mL (final assay concentration), and 5 μL of bead mix is added into the assay plate. Plates are kept at room temperature in a darkened incubator for 3 h. After a 3 h incubation, the signal is determined using Envision (PerkinElmer). The excitation wavelength is 680 nm, and emission 615 nm. IC50 values are calculated and analyzed using GraphPad Prism.

IC50 (NCI-H358)	IC50 (SOS1 and KRAS G12D)	SMILES
100 to 500 nM	≤ 15 nM	Cc1nc(N[C@H](C)c2cccc(C(F)F)c2F)c2cn(N3CCS(=O)(=O)CC3)c(=O)cc2n1 [Example 36]
100 to 500 nM	≤ 15 nM	Cc1nc(N[C@H](C)c2cccc(C(F)F)c2F)c2cn(N3CCC(O)CC3)c(=O)cc2n1 [Example 37]
100 to 500 nM	≤ 15 nM	Cc1nc(N[C@H](C)c2cccc(C(F)F)c2F)c2cn(N3CCOC3=O)c(=O)cc2n1 [Example 39]
≤ 100 nM	≤ 15 nM	Cc1nc(N[C@H](C)c2cccc(C(F)F)c2F)c2cn(N3CCOCC3)c(=O)c(Br)c2n1 [Example 40, 8-bromo-4-[[(1R)-1-[3-(difluoromethyl)-2-fluoro-phenyl]ethyl]amino]-2-methyl-6-morpholino-pyrido[4,3-d]pyrimidin-7-one]
100 to 500 nM	≤ 15 nM	Cc1nc(N[C@H](C)c2cccc(C(F)F)c2F)c2cn(N3CCOCC3)c(=O)c(C3CC3)c2n1 [Example 42, 8-cyclopropyl-4-[[(1R)-1-[3-(difluoromethyl)-2-fluoro-phenyl]ethyl]amino]-2-methyl-6-morpholino-pyrido[4,3-d]pyrimidin-7-one]
≤ 100 nM	≤ 15 nM	Cc1nc(N[C@H](C)c2cccc(C(F)F)c2F)c2cn(N3CCOCC3)c(=O)c(C)c2n1 [Example 44]
≤ 100 nM	≤ 15 nM	Cc1nc(N[C@H](C)c2cccc(C(F)F)c2F)c2cn(N3CCOCC3)c(=O)c(-c3ccncc3)c2n1 [Example 46]
100 to 500 nM	≤ 15 nM	Cc1nc(N[C@H](C)c2cccc(C(F)F)c2F)c2cn(N3CCOCC3)c(=O)c(-c3ccccc3)c2n1 [Example 47]
100 to 500 nM	≤ 15 nM	Cc1nc(N[C@H](C)c2cccc(C(F)F)c2F)c2cn(N3CCOCC3)c(=O)c(-c3ccc(N)nc3)c2n1 [Example 48]
500 to 1000 nM	≤ 15 nM	Cc1nc(N[C@H](C)c2cccc(C(F)F)c2F)c2cn(N3CCOCC3)c(=O)c(-c3ccc(=O)[nH]c3)c2n1 [Example 49]
100 to 500 nM	≤ 15 nM	Cc1nc(N[C@H](C)c2cccc(C(F)F)c2F)c2cn(N3CCOCC3)c(=O)c(-c3ccc(F)nc3)c2n1 [Example 50]
> 1000 nM	≤ 15 nM	Cc1nc(N[C@H](C)c2cccc(C(F)F)c2F)c2cn(N3CCOCC3)c(=O)c(-c3ccc[nH]c3=O)c2n1 [Example 51]
100 to 500 nM	≤ 15 nM	Cc1nc(N[C@H](C)c2cccc(C(F)F)c2F)c2cn(N3CCOCC3)c(=O)c(C3=CCOC3)c2n1 [Example 54]
100 to 500 nM	≤ 15 nM	Cc1nc(N[C@H](C)c2cccc(C(F)F)c2F)c2cn(N3CCOCC3)c(=O)c(C3=CCN(S(C)(=O)=O)CC3)c2n1 [Example 55]
100 to 500 nM	≤ 15 nM	C=C(C)c1c(=O)n(N2CCOCC2)cc2c(N[C@H](C)c3cccc(C(F)F)c3F)nc(C)nc12 [Example 56]
≤ 100 nM	≤ 15 nM	COc1ccc(-c2c(=O)n(N3CCOCC3)cc3c(N[C@H](C)c4cccc(C(F)F)c4F)nc(C)nc23)cn1 [Example 58]
≤ 100 nM	≤ 15 nM	Cc1nc(N[C@H](C)c2cccc(C(F)F)c2F)c2cn(N3CCOCC3)c(=O)c(-c3cnc(C#N)nc3)c2n1 [Example 66]
≤ 100 nM	15 to 150 nM	Cc1nc(N[C@H](C)c2cccc(C(F)F)c2F)c2cn(N3CCOCC3)c(=O)c(-c3cnc(C#N)c(F)c3)c2n1 [Example 67]
100 to 500 nM	≤ 15 nM	Cc1nc(N[C@H](C)c2cccc(C(F)F)c2F)c2cn(N3CCOCC3)c(=O)c(-c3ccc(P(C)(C)=O)nc3)c2n1 [Example 71]
≤ 100 nM	≤ 15 nM	Cc1nc(N[C@H](C)c2cccc(C(F)F)c2F)c2cn(N3CCOCC3)c(=O)c(-c3ccc4nccn4c3)c2n1 [Example 73]
≤ 100 nM	≤ 15 nM	Cc1nc(N[C@H](C)c2cccc(C(F)F)c2F)c2cn(N3CCOCC3)c(=O)c(-c3ccc(C#N)nc3)c2n1 [Example 75, (R)-5-(4-((1-(3-(difluoromethyl)-2-fluorophenyl)ethyl)amino)-2-methyl-6-morpholino-7-oxo-6,7-dihydropyrido[4,3-]pyrimidin-8-yl)picolinonitrile]
100 to 500 nM	15 to 150 nM	Cc1nc(N[C@H](C)c2cccc(C(F)(F)F)c2C)c2cn(N3CCOCC3)c(=O)c(-c3ccc(C#N)nc3)c2n1 [Example 76]

More lines, now with the values behind:

SMILES	IC50 (NCI-H358)	IC50 (SOS1 and KRAS G12D)
Cc1nc(N[C@H](C)c2cccc(C(F)F)c2F)c2cn(N3CCCC3=O)c(=O)cc2n1 [Example 38]	500 to 1000 nM	≤ 15 nM
Cc1nc(N[C@H](C)c2cccc(C(F)F)c2F)c2cn(N3CCOCC3)c(=O)c(C#N)c2n1 [Example 41, 4-[[(1R)-1-[3-(difluoromethyl)-2-fluoro-phenyl]ethyl]amino]-2-methyl-6-morpholino-7-oxo-pyrido[4,3-d]pyrimidine-8-carbonitrile]	100 to 500 nM	15 to 150 nM
Cc1nc(N[C@H](C)c2cccc(C(F)F)c2F)c2cn(N3CCOCC3)c(=O)c(-c3cccnc3)c2n1 [Example 45]	≤ 100 nM	≤ 15 nM
Cc1nc(N[C@H](C)c2cccc(C(F)F)c2F)c2cn(N3CCOCC3)c(=O)c(-c3cncnc3)c2n1 [Example 52]	≤ 100 nM	≤ 15 nM
Cc1nc(N[C@H](C)c2cccc(C(F)F)c2F)c2cn(N3CCOCC3)c(=O)c(-c3ccc(C#N)cc3)c2n1 [Example 57]	≤ 100 nM	≤ 15 nM
Cc1ccc(-c2c(=O)n(N3CCOCC3)cc3c(N[C@H](C)c4cccc(C(F)F)c4F)nc(C)nc23)cn1 [Example 59]	≤ 100 nM	≤ 15 nM
Cc1nc(N[C@H](C)c2cccc(C(F)F)c2F)c2cn(N3CCOCC3)c(=O)c(-c3ccc(C(F)(F)F)nc3)c2n1 [Example 60]	≤ 100 nM	15 to 150 nM
Cc1nc(N[C@H](C)c2cccc(C(F)F)c2F)c2cn(N3CCOCC3)c(=O)c(-c3ccc(C#N)c(F)c3)c2n1 [Example 62]	100 to 500 nM	15 to 150 nM
Cc1nc(N[C@H](C)c2cccc(C(F)F)c2F)c2cn(N3CCOCC3)c(=O)c(-c3ccc(F)c(C#N)c3)c2n1 [Example 63]	500 to 1000 nM	15 to 150 nM
Cc1nc(N[C@H](C)c2cccc(C(F)F)c2F)c2cn(N3CCOCC3)c(=O)c(-c3cc(F)cc(C#N)c3)c2n1 [Example 64]	500 to 1000 nM	15 to 150 nM
Cc1nc(N[C@H](C)c2cccc(C(F)F)c2F)c2cn(N3CCOCC3)c(=O)c(-c3cc(C#N)ccc3F)c2n1 [Example 65]	100 to 500 nM	15 to 150 nM
Cc1nc(N[C@H](C)c2cccc(C(F)F)c2F)c2cn(N3CCOCC3)c(=O)c(-c3ccnc(C#N)c3)c2n1 [Example 68]	100 to 500 nM	≤ 15 nM
Cc1nc(N[C@H](C)c2cccc(C(F)F)c2F)c2cn(N3CCOCC3)c(=O)c(-c3cn(CC(F)F)cn3)c2n1 [Example 69]	≤ 100 nM	≤ 15 nM
Cc1nc(N[C@H](C)c2cccc(C(F)F)c2F)c2cn(N3CCOCC3)c(=O)c(-c3cnn(C)c3)c2n1 [Example 70]	100 to 500 nM	≤ 15 nM
Cc1nc(N[C@H](C)c2cccc(C(F)F)c2F)c2cn(N3CCOCC3)c(=O)c(-c3ccc4nncn4c3)c2n1 [Example 72]	100 to 500 nM	≤ 15 nM
Cc1nc(N[C@H](C)c2cccc(C(F)F)c2F)c2cn(N3CCOCC3)c(=O)c(-c3ccccn3)c2n1 [Example 74, (R)-4-((1-(3-(difluoromethyl)-2-fluorophenyl)ethyl)amino)-2-methyl-6-morpholino-8-(pyridin-2-yl)pyrido[4,3-d]pyrimidin-7(6H)-one]	100 to 500 nM	≤ 15 nM
